According to US10370343B2, “[6,6] Fused bicyclic HDAC8 inhibitors” (FORMA Therapeutics, Inc., priority 2015, dated 2019):
Counter-ions that a name gives are not always drawn.

target: T1, Full length human recombinant HDAC8 protein (Homo sapiens, UniProt Q9BY41); test: In vitro histone deacetylase assay: enzymatic HDAC8 electrophoretic mobility shift assay; type: biochemical; settings: not given
T1 construct: Full length human recombinant HDAC8 protein was expressed in baculoviral system; made in house
T1 sequence (Q9BY41 1-377): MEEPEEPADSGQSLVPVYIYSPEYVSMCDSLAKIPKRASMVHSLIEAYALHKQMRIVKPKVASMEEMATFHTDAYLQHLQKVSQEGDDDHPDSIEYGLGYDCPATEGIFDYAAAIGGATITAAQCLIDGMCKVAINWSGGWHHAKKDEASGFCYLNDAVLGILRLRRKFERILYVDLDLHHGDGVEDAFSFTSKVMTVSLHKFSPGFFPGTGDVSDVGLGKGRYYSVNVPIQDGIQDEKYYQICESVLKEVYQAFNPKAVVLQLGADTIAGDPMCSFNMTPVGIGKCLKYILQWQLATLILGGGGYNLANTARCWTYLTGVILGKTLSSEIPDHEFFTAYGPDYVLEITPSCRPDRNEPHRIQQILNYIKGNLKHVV
Experimental: The enzymatic HDAC8 assay was performed using electrophoretic mobility shift assay. Full length human recombinant HDAC8 protein was expressed in baculoviral system and purified by affinity chromatography. The enzymatic reactions were assembled in 384 well plates in a total volume of 25 μL in a reaction buffer composing: 100 mM HEPES, pH7.5, 25 mM KCl, 0.1% bovine serum albumin, 0.01% Triton X-100, 1% DMSO (from compounds) 2 μM of the fluorescently labeled peptide substrate and enzyme. The enzyme was added at a final concentration of 1 nM. The peptide substrate RHKK(Ac)—NH2 was used. The compounds were tested at 12 concentrations spaced by 3× dilution intervals. Negative control samples (0%-inhibition in the absence of inhibitor) and positive control samples (100%-inhibition) were assembled in replicates of four in each assay plate. The reactions were incubated at 25° C. and quenched by the addition of 45 μL of termination buffer (100 mM HEPES, pH 7.5, 0.01% Triton X-100, 0.05% SDS).
The terminated assay plates were analyzed on LabChip® 3000 microfluidic electrophoresis instrument (Perkin Elmer/Caliper Life Sciences). The fluorescence intensity of the electrophoretically separated de-acetylated product and substrate peptide was measured. Activity in each sample was determined as the product to sum ratio (PSR): P/(S+P), where P is the peak height of the product peptide and S is the peak height of the substrate peptide. Percent inhibition (Pinh) is determined using the following equation: Pinh=(PSR0%−PSRinh)/(PSR0%−PSR100%)*100, where PSRinh is the product sum ratio in the presence of inhibitor, PSR0% is the average product sum ration in the absence of inhibitor and PSR100% is the average product sum ratio in 100%-inhibition control samples. The IC50 values of inhibitors were determined by fitting the %-inhibition curves with 4 parameter dose-response model using XLfit 4 software.

IC50 [nM]	SMILES
100 to 1000	CN(C(=O)CN1C(=O)COc2ccc(C(=O)NO)cc21)C1CC1 [Compound I-51, 4-(2-(cyclopropyl(methyl)amino)-2-oxoethyl)-N-hydroxy-3-oxo-3,4-dihydro-2H-benzo[b][1,4]oxazine-6-carboxamide]

same assay, conditions: electrophoretic mobility shift assay; enzyme 1 nM; 2 μM fluorescently labeled peptide substrate RHKK(Ac)-NH2; 25° C.; 12 concentrations; read-out: HDAC8 IC50

IC50 [nM]	SMILES
100 to 1000	COCCn1c(CN2CCOc3ccc(C(=O)NO)cc32)nc2ccccc21 [Compound I-29, N-hydroxy-4-((1-(2-methoxyethyl)-1H-benzo[d]imidazol-2-yl)methyl)-3,4-dihydro-2H-benzo[b][1,4]oxazine-6-carboxamide]
100 to 1000	O=C(NO)c1ccc2c(c1)N(Cc1ccccn1)C(=O)CO2 [Compound I-61, N-hydroxy-3-oxo-4-(pyridin-2-ylmethyl)-3,4-dihydro-2H-benzo[b][1,4]oxazine-6-carboxamide]
100 to 1000	O=C(NO)c1ccc2c(c1)N(Cc1ccccc1OC(F)(F)F)CCO2 [Compound I-25, N-hydroxy-4-(2-(trifluoromethoxy)benzyl)-3,4-dihydro-2H-benzo[b][1,4]oxazine-6-carboxamide]
100 to 1000	COc1ccccc1CN1C(=O)COc2ccc(C(=O)NO)cc21 [Compound I-63, N-hydroxy-4-(2-methoxybenzyl)-3-oxo-3,4-dihydro-2H-benzo[b][1,4]oxazine-6-carboxamide]
25 to 100	COc1ccc(CN2C(=O)C(C)(C)Oc3ccc(C(=O)NO)cc32)c(Cl)c1 [Compound I-159, 4-(2-chloro-4-methoxybenzyl)-N-hydroxy-2,2-dimethyl-3-oxo-3,4-dihydro-2H-benzo[b][1,4]oxazine-6-carboxamide]
< 25	O=C(NO)c1ccc2c(c1)N(Cc1ccccc1Cl)CCO2 [Compound I-128, 4-(2-chlorobenzyl)-N-hydroxy-3,4-dihydro-2H-benzo[b][1,4]oxazine-6-carboxamide]
100 to 1000	CC1Oc2cc(C(=O)NO)ccc2N(Cc2ccc(S(C)(=O)=O)cc2)C1=O (centres unmarked) [Compound I-92, N-hydroxy-2-methyl-4-(4-(methylsulfonyl)benzyl)-3-oxo-3,4-dihydro-2H-benzo[b][1,4]oxazine-7-carboxamide]
> 1000	COc1ccc(C(=O)N2CCOc3ccc(C(=O)NO)cc32)cc1 [Compound I-113, N-hydroxy-4-(4-methoxybenzoyl)-3,4-dihydro-2H-benzo[b][1,4]oxazine-6-carboxamide]
25 to 100	O=C(NO)c1ccc2c(c1)N(Cc1ccccc1)CC(C(=O)N1CC3(CC3)c3ccccc31)O2 (centres unmarked) [Compound I-4, 4-benzyl-N-hydroxy-2-(spiro[cyclopropane-l,3′-indoline]-1′ carbonyl)-3,4-dihydro-2H-benzo[b][1,4]oxazine-6-carboxamide hydrochloride]
25 to 100	CC(C)=CCCN1C(=O)COc2ccc(C(=O)NO)cc21 [Compound I-44, N-hydroxy-4-(4-methylpent-3-en-1-yl)-3-oxo-3,4-dihydro-2H-benzo[b][1,4]oxazine-6-carboxamide]
100 to 1000	CC(c1ccccc1Cl)N1CCOc2ccc(C(=O)NO)cc21 (centres unmarked) [Compound I-136, 4-(1-(2-chlorophenyl)ethyl)-N-hydroxy-3,4-dihydro-2H-benzo[b][1,4]oxazine-6-carboxamide]
> 1000	CC(C)n1c(CN2CCOc3ccc(C(=O)NO)cc32)nc2ccccc21 [Compound I-28, N-hydroxy-4-((1-isopropyl-1H-benzo[d]imidazol-2-yl)methyl)-3,4-dihydro-2H-benzo[b][1,4]oxazine-6-carboxamide]
> 1000	O=C(NO)c1cccc2c1CCCN2c1nc2ccccc2[nH]1 [Compound I-14, 1-(1H-1,3-benzodiazol-2-yl)-N-hydroxy-1,2,3,4-tetrahydroquinoline-5-carboxamide]
25 to 100	COc1cccc(CN2CCOc3ccc(C(=O)NO)cc32)c1 [Compound I-121, N-hydroxy-4-(3-methoxybenzyl)-3,4-dihydro-2H-benzo[b][1,4]oxazine-6-carboxamide]
100 to 1000	O=C(NO)c1ccc2c(c1)N(C1CCCC1)C(=O)CO2 [Compound I-42, 4-cyclopentyl-N-hydroxy-3-oxo-3,4-dihydro-2H-benzo[b][1,4]oxazine-6-carboxamide]
100 to 1000	O=C(NO)c1ccc2c(c1)N(Cc1nc3ccc(Cl)cc3n1CC1CC1)C(=O)CO2 [Compound I-260, 4-((6-chloro-1-(cyclopropylmethyl)-1H-benzo[d]imidazol-2-yl)methyl)-N-hydroxy-3-oxo-3,4-dihydro-2H-benzo[b][1,4]oxazine-6-carboxamide]

IC50 [nM]	SMILES
25 to 100	Cc1ccccc1CN1CCOc2ccc(C(=O)NO)cc21 [Compound I-127, N-hydroxy-4-(2-methylbenzyl)-3,4-dihydro-2H-benzo[b][1,4]oxazine-6-carboxamide]
< 25	CS(=O)(=O)c1ccc(CN2CCOc3ccc(C(=O)NO)cc32)c(Cl)c1 [Compound I-134, 4-(2-chloro-4-(methylsulfonyl)benzyl)-N-hydroxy-3,4-dihydro-2H-benzo[b][1,4]oxazine-6-carboxamide]
25 to 100	CC(c1ccccc1)N1C(=O)COc2ccc(C(=O)NO)cc21 (centres unmarked) [Compound I-67, N-hydroxy-3-oxo-4-(1-phenylethyl)-3,4-dihydro-2H-benzo[b][1,4]oxazine-6-carboxamide]
100 to 1000	COc1ccc(S(=O)(=O)N2CCOc3ccc(C(=O)NO)cc32)cc1 [Compound I-87, N-hydroxy-4-((4-methoxyphenyl)sulfonyl)-3,4-dihydro-2H-benzo[b][1,4]oxazine-6-carboxamide]
25 to 100	CN(C)S(=O)(=O)c1ccc(OCCN2C(=O)COc3ccc(C(=O)NO)cc32)cc1 [Compound I-56, 4-(2-(4-(N,N-dimethylsulfamoyl)phenoxy)ethyl)-N-hydroxy-3-oxo-3,4-dihydro-2H-benzo[b][1,4]oxazine-6-carboxamide]
< 25	Cc1ccc(CN2C(=O)COc3ccc(C(=O)NO)cc32)cc1C [Compound I-219, 4-(3,4-dimethylbenzyl)-N-hydroxy-3-oxo-3,4-dihydro-2H-benzo[b][1,4]oxazine-6-carboxamide]
< 25	O=C(NO)c1ccc2c(c1)N(Cc1cccc(OC(F)(F)F)c1)C(=O)CO2 [Compound I-146, N-hydroxy-3-oxo-4-(3-(trifluoromethoxy)benzyl)-3,4-dihydro-2H-benzo[b][1,4]oxazine-6-carboxamide]
100 to 1000	CCCN1C(=O)COc2ccc(C(=O)NO)cc21 [Compound I-39, N-hydroxy-3-oxo-4-propyl-3,4-dihydro-2H-benzo[b][1,4]oxazine-6-carboxamide]
< 25	O=C(NO)c1ccc2c(c1)N(Cc1cccc(OC(F)F)c1)CCO2 [Compound I-132, 4-(3-(difluoromethoxy)benzyl)-N-hydroxy-3,4-dihydro-2H-benzo[b][1,4]oxazine-6-carboxamide]
25 to 100	O=C(NO)c1ccc2c(c1)N(Cc1ccc(Cl)cc1)CCO2 [Compound I-118, 4-(4-chlorobenzyl)-N-hydroxy-3,4-dihydro-2H-benzo[b][1,4]oxazine-6-carboxamide]
25 to 100	COc1ccc(CN2c3cc(C(=O)NO)ccc3OCC2C)cc1 (centres unmarked) [Compound I-155, N-hydroxy-4-(4-methoxybenzyl)-3-methyl-3,4-dihydro-2H-benzo[b][1,4]oxazine-6-carboxamide]
100 to 1000	COc1ccc(CN2C(=O)COc3cc(C(=O)NO)ccc32)cc1 [Compound I-89, N-hydroxy-4-(4-methoxybenzyl)-3-oxo-3,4-dihydro-2H-benzo[b][1,4]oxazine-7-carboxamide]
25 to 100	O=C(NO)c1ccc2c(c1)N(CCOc1ccc(C(F)(F)F)cc1)C(=O)CO2 [Compound I-55, N-hydroxy-3-oxo-4-(2-(4-(trifluoromethyl)phenoxy)ethyl)-3,4-dihydro-2H-benzo[b][1,4]oxazine-6-carboxamide]
25 to 100	CC(c1ccccc1F)N1C(=O)COc2ccc(C(=O)NO)cc21 (centres unmarked) [Compound I-95, 4-(1-(2-fluorophenyl)ethyl)-N-hydroxy-3-oxo-3,4-dihydro-2H-benzo[b][1,4]oxazine-6-carboxamide]
25 to 100	CS(=O)(=O)c1ccc(CN2CCOc3ccc(C(=O)NO)cc32)c(C(F)(F)F)c1 [Compound I-137, N-hydroxy-4-(4-(methylsulfonyl)-2-(trifluoromethyl)benzyl)-3,4-dihydro-2H-benzo[b][1,4]oxazine-6-carboxamide]
